# Laboratory results published in patent US8192962B2, “Processes for detecting toxic substances” (Daikin Industries, Ltd., priority 2001, dated 2012).
# System: Energy system protein genes
# Assay: DNA chip mRNA expression in yeast, energy system protein genes (Table 4)
# Format: cell-based, Saccharomyces cerevisiae S288C
# Description: Yeast (Saccharomyces cerevisiae S288C (α SUC2mal mel gap2 CUP1)) were incubated at 25° C. on YPD medium (yeast extract 1%, polypepton 2%, glucose 2%). One of toxic chemical substances was added to the cells at logarithmic growth phase, and the cells were further incubated for two hours. Cells were cultured without any chemical substance in the same condition, and were used as control. Concentrations of the chemical substances were defined to inhibit the growth of the yeast but not lead to death.
# After completion of the incubation, the culture was centrifuged to collect the cells. To the cells, sodium acetate buffer (50 mM sodium acetate, 10 mM EDTA, 1% SDS) was added, and the mixture was shaken at 65° C. for five minutes, followed by returning to room temperature, and obtaining the supernatant, of which the procedures were repeated two times. To the supernatant, ½ amount of a solution of phenol/chloroform was added, and the mixture was centrifuged to give a supernatant, which was added with an equal amount of chloroform, and the mixture was centrifuged to give a supernatant. To the supernatant, an equal amount of isopropanol containing 0.3 M sodium acetate was added, and the mixture was allowed to stand at room temperature for 30 minutes, after which the mixture was centrifuged to give a sediment of the whole RNAs. Seventy % ethanol was added to the sediment, and the mixture was again centrifuged to give a sediment, which was then dried and dissolved in water. mRNA was isolated from the whole RNAs as followings. In view of the fact that a poly A chain is attached to the 3′ terminus of mRNA, a polynucleotide having a poly T structure which was immobilized on the surface of latex beads was used to trap the mRNA, and then the mRNA was washed and eluted with spine column (Oligotex-dT30<Super>mRNA Purification Kit, Takara). Reverse transcription of the mRNA was conducted with a reverse transcriptase (Super Script II Reverse Transcriptase; catalogue No. 18064-014, GibcoBRL) using fluorescence-labeled nucleotides to give cDNAs that were introduced with Cy3-dUTP or Cy5-dUTP during the reverse transcription.
# The labeled cDNAs were dissolved in TE buffer (10mM Tris-HCl/1 mM EDTA, pH8.0), and the solution was dropped on the DNA chip containing the whole genes of yeast (DNA Chip Research Inc. Japan) so that the cDNAs were hybridized on the DNA chip at 65° C. for over 12 hours. The fluoresces intensity of the DNA chip was read with a scanner, and the ratio relative to the fluorescence intensity resulting from the absence of chemical substance was estimated as the following, which is shown in Tables 1 to 9: […]
structure (smiles),measurement,setting,value
"CCCCCCCCCCCCOS(=O)(=O)[O-].[Na+] [(18), sodium lauryl sulfate]",The level of expressed mRNA in the presence of chemical substance/The level of expressed mRNA in the absence of chemical substance,yeast gene YJR009C,1.3
same,The level of expressed mRNA in the presence of chemical substance/The level of expressed mRNA in the absence of chemical substance,yeast gene YJR048W,1.2
same,The level of expressed mRNA in the presence of chemical substance/The level of expressed mRNA in the absence of chemical substance,"yeast gene YJR121W, cells incubated two hours with the chemical substance",1.4
same,The level of expressed mRNA in the presence of chemical substance/The level of expressed mRNA in the absence of chemical substance,yeast gene YJR155W,1.4
same,The level of expressed mRNA in the presence of chemical substance/The level of expressed mRNA in the absence of chemical substance,"yeast gene YKL016C, cells incubated two hours with the chemical substance",1.7
same,The level of expressed mRNA in the presence of chemical substance/The level of expressed mRNA in the absence of chemical substance,"yeast gene YKL060C, cells incubated two hours with the chemical substance",1.7
same,The level of expressed mRNA in the presence of chemical substance/The level of expressed mRNA in the absence of chemical substance,"yeast gene YKL141W, cells incubated two hours with the chemical substance",1.8
same,The level of expressed mRNA in the presence of chemical substance/The level of expressed mRNA in the absence of chemical substance,"yeast gene YKL148C, cells incubated two hours with the chemical substance",1.0
same,The level of expressed mRNA in the presence of chemical substance/The level of expressed mRNA in the absence of chemical substance,"yeast gene YKR009C, cells incubated two hours with the chemical substance",2.5
same,The level of expressed mRNA in the presence of chemical substance/The level of expressed mRNA in the absence of chemical substance,"yeast gene YKR058W, cells incubated two hours with the chemical substance, 25° C., YPD medium",1.6
same,The level of expressed mRNA in the presence of chemical substance/The level of expressed mRNA in the absence of chemical substance,yeast gene YKR097W,1.5
same,The level of expressed mRNA in the presence of chemical substance/The level of expressed mRNA in the absence of chemical substance,"yeast gene YLL041C, cells incubated two hours with the chemical substance",1.7
same,The level of expressed mRNA in the presence of chemical substance/The level of expressed mRNA in the absence of chemical substance,"yeast gene YLR038C, cells incubated two hours with the chemical substance",2.1
same,The level of expressed mRNA in the presence of chemical substance/The level of expressed mRNA in the absence of chemical substance,"yeast gene YLR044C, cells incubated two hours with the chemical substance",0.9
same,The level of expressed mRNA in the presence of chemical substance/The level of expressed mRNA in the absence of chemical substance,"yeast gene YLR134W, cells incubated two hours with the chemical substance",0.8
same,The level of expressed mRNA in the presence of chemical substance/The level of expressed mRNA in the absence of chemical substance,"yeast gene YLR258W, cells incubated two hours with the chemical substance",2.0
same,The level of expressed mRNA in the presence of chemical substance/The level of expressed mRNA in the absence of chemical substance,"yeast gene YLR284C, cells incubated two hours with the chemical substance",8.1
same,The level of expressed mRNA in the presence of chemical substance/The level of expressed mRNA in the absence of chemical substance,"yeast gene YLR295C, cells incubated two hours with the chemical substance, 25° C., YPD medium",1.5
same,The level of expressed mRNA in the presence of chemical substance/The level of expressed mRNA in the absence of chemical substance,"yeast gene YLR304C, cells incubated two hours with the chemical substance",0.7
same,The level of expressed mRNA in the presence of chemical substance/The level of expressed mRNA in the absence of chemical substance,yeast gene YLR345W,1.4
same,The level of expressed mRNA in the presence of chemical substance/The level of expressed mRNA in the absence of chemical substance,"yeast gene YLR354C, cells incubated two hours with the chemical substance",1.5
same,The level of expressed mRNA in the presence of chemical substance/The level of expressed mRNA in the absence of chemical substance,"yeast gene YLR377C, cells incubated two hours with the chemical substance",1.4
same,The level of expressed mRNA in the presence of chemical substance/The level of expressed mRNA in the absence of chemical substance,"yeast gene YLR395C, cells incubated two hours with the chemical substance",2.3
same,The level of expressed mRNA in the presence of chemical substance/The level of expressed mRNA in the absence of chemical substance,yeast gene YML087C,0.8
same,The level of expressed mRNA in the presence of chemical substance/The level of expressed mRNA in the absence of chemical substance,"yeast gene YML120C, cells incubated two hours with the chemical substance",1.6
same,The level of expressed mRNA in the presence of chemical substance/The level of expressed mRNA in the absence of chemical substance,"yeast gene YML129C, cells incubated two hours with the chemical substance",1.3
same,The level of expressed mRNA in the presence of chemical substance/The level of expressed mRNA in the absence of chemical substance,"yeast gene YMR073C, cells incubated two hours with the chemical substance",1.2
same,The level of expressed mRNA in the presence of chemical substance/The level of expressed mRNA in the absence of chemical substance,yeast gene YMR118C,1.0
same,The level of expressed mRNA in the presence of chemical substance/The level of expressed mRNA in the absence of chemical substance,"yeast gene YMR205C, cells incubated two hours with the chemical substance",0.5
same,The level of expressed mRNA in the presence of chemical substance/The level of expressed mRNA in the absence of chemical substance,"yeast gene YMR261C, cells incubated two hours with the chemical substance",1.1
same,The level of expressed mRNA in the presence of chemical substance/The level of expressed mRNA in the absence of chemical substance,"yeast gene YMR267W, cells incubated two hours with the chemical substance, 25° C., YPD medium",1.3
same,The level of expressed mRNA in the presence of chemical substance/The level of expressed mRNA in the absence of chemical substance,"yeast gene YMR323W, cells incubated two hours with the chemical substance",0.6
same,The level of expressed mRNA in the presence of chemical substance/The level of expressed mRNA in the absence of chemical substance,yeast gene YNL071W,1.2
same,The level of expressed mRNA in the presence of chemical substance/The level of expressed mRNA in the absence of chemical substance,"yeast gene YNL202W, cells incubated two hours with the chemical substance",3.3
same,The level of expressed mRNA in the presence of chemical substance/The level of expressed mRNA in the absence of chemical substance,yeast gene YNL241C,1.0
same,The level of expressed mRNA in the presence of chemical substance/The level of expressed mRNA in the absence of chemical substance,yeast gene YNL331C,1.3
same,The level of expressed mRNA in the presence of chemical substance/The level of expressed mRNA in the absence of chemical substance,"yeast gene YOL086C, cells incubated two hours with the chemical substance",1.3
same,The level of expressed mRNA in the presence of chemical substance/The level of expressed mRNA in the absence of chemical substance,yeast gene YOL165C,1.0
same,The level of expressed mRNA in the presence of chemical substance/The level of expressed mRNA in the absence of chemical substance,"yeast gene YOR142W, cells incubated two hours with the chemical substance",1.0
same,The level of expressed mRNA in the presence of chemical substance/The level of expressed mRNA in the absence of chemical substance,"yeast gene YOR178C, cells incubated two hours with the chemical substance",1.5
same,The level of expressed mRNA in the presence of chemical substance/The level of expressed mRNA in the absence of chemical substance,"yeast gene YOR388C, cells incubated two hours with the chemical substance",0.9
same,The level of expressed mRNA in the presence of chemical substance/The level of expressed mRNA in the absence of chemical substance,"yeast gene YPL031C, cells incubated two hours with the chemical substance",1.2
same,The level of expressed mRNA in the presence of chemical substance/The level of expressed mRNA in the absence of chemical substance,"yeast gene YPL061W, cells incubated two hours with the chemical substance",2.6
same,The level of expressed mRNA in the presence of chemical substance/The level of expressed mRNA in the absence of chemical substance,yeast gene YPL088W,8.3
same,The level of expressed mRNA in the presence of chemical substance/The level of expressed mRNA in the absence of chemical substance,yeast gene YPL171C,1.5
same,The level of expressed mRNA in the presence of chemical substance/The level of expressed mRNA in the absence of chemical substance,yeast gene YPL240C,1.0
same,The level of expressed mRNA in the presence of chemical substance/The level of expressed mRNA in the absence of chemical substance,"yeast gene YPL262W, cells incubated two hours with the chemical substance",1.2
same,The level of expressed mRNA in the presence of chemical substance/The level of expressed mRNA in the absence of chemical substance,"yeast gene YPL275W, cells incubated two hours with the chemical substance",1.0
same,The level of expressed mRNA in the presence of chemical substance/The level of expressed mRNA in the absence of chemical substance,"yeast gene YPL276W, cells incubated two hours with the chemical substance",0.8
same,The level of expressed mRNA in the presence of chemical substance/The level of expressed mRNA in the absence of chemical substance,"yeast gene YPR048W, cells incubated two hours with the chemical substance",0.8
same,The level of expressed mRNA in the presence of chemical substance/The level of expressed mRNA in the absence of chemical substance,"yeast gene YPR184W, cells incubated two hours with the chemical substance",1.7
